# Test results reported in US10842892B2, “Methods and apparatus for synthesizing imaging agents, and intermediates thereof” (Lantheus Medical Imaging, Inc., priority 2010, dated 2020).
# Values joined by “and” are separate entries in the source; they are usually repeats but may differ in a detail not shown here. Equal values may be shown once.
# Test system: healthy volunteers
# Assay: single-dose dosimetry and biodistribution trial in healthy subjects (MIRD)
# Type: in vivo, human
# Experimental: The following provides results obtained from a study regarding a single-dose dosimetry, biodistribution, and safety trial of imaging agent 1 in healthy subjects. Whole body PET image data for the 12 healthy volunteers were obtained using imaging agent 1 at approximately 10 minutes, 30 minutes, 50 minutes, 2 hours, 2.5 hours, 3.83 hours, and 4.5 hours post injection. Image data were attenuation corrected at the imaging site, and were quantified based on the Medical Internal Radiation Dose (MIRD) 16 methodology by Dosimetry Analysis Laboratory, CDE Dosimetry Services (CDE) to determine kinetic data in all organs showing significant uptake of activity. Dosimetry estimates were created via kinetic modeling of the quantified image data to determine residence times, and the standard MIRD methodology. These estimates were determined using 3 assumptions regarding urinary bladder voiding intervals (2.0, 3.5, and 4.8 hr). Kinetic data, residence times, and the dosimetry estimates are reported for individuals, and as summary statistics.
# [1] = 12 healthy volunteers, voiding interval 3.5 hours
# [2] = average, voiding interval 3.5 hours
smiles,measurement,setting,value
"CC(C)(C)n1ncc(OCc2ccc(COCC[18F])cc2)c(Cl)c1=O [imaging agent 1, 2-t-butyl-4-chloro-5-[4-(2-(^18F)fluoroethoxymethyl)-benzyloxy]-2H-pyridazin-3-1]","EDE (effective dose equivalent), Mean",12 healthy volunteers,8.0E−02 rem/mCi
same,"absorbed dose estimate, Mean, Adrenals",12 healthy volunteers,5.8E−02 rem/mCi
same,"absorbed dose estimate, Mean, Brain",12 healthy volunteers,9.4E−02 rem/mCi
same,"absorbed dose estimate, Mean, Breasts",12 healthy volunteers,3.2E−02 rem/mCi
same,"absorbed dose estimate, Mean, Gallbladder Wall",12 healthy volunteers,6.4E−02 rem/mCi
same,"absorbed dose estimate, Mean, LLI Wall",12 healthy volunteers,4.3E−02 rem/mCi
same,"absorbed dose estimate, Mean, Liver",12 healthy volunteers,1.5E−01 rem/mCi
same,"absorbed dose estimate, Mean, Lungs",12 healthy volunteers,4.2E−02 rem/mCi
same,"absorbed dose estimate, Mean, Muscle",12 healthy volunteers,3.8E−02 rem/mCi
same,"absorbed dose estimate, Mean, Osteogenic Cells",12 healthy volunteers,6.9E−02 rem/mCi
same,"absorbed dose estimate, Mean, Ovaries",12 healthy volunteers,4.5E−02 rem/mCi
same,"absorbed dose estimate, Mean, Pancreas",12 healthy volunteers,5.9E−02 rem/mCi
same,"absorbed dose estimate, Mean, Red Marrow",12 healthy volunteers,6.0E−02 rem/mCi
same,"absorbed dose estimate, Mean, Salivary",12 healthy volunteers,1.3E−01 rem/mCi
same,"absorbed dose estimate, Mean, Skin",12 healthy volunteers,2.9E−02 rem/mCi
same,"absorbed dose estimate, Mean, Small Intestine",12 healthy volunteers,4.7E−02 rem/mCi
same,"absorbed dose estimate, Mean, Spleen",12 healthy volunteers,6.0E−02 rem/mCi
same,"absorbed dose estimate, Mean, Stomach Wall",12 healthy volunteers,1.5E−01 rem/mCi
same,"absorbed dose estimate, Mean, Testes",12 healthy volunteers,3.4E−02 rem/mCi
same,"absorbed dose estimate, Mean, Thymus",12 healthy volunteers,4.1E−02 rem/mCi
same,"absorbed dose estimate, Mean, Thyroid",12 healthy volunteers,1.2E−01 rem/mCi
same,"absorbed dose estimate, Mean, Total Body",12 healthy volunteers,4.5E−02 rem/mCi
same,"absorbed dose estimate, Mean, ULI Wall",12 healthy volunteers,4.7E−02 rem/mCi
same,"absorbed dose estimate, Mean, Urinary Bladder Wall",12 healthy volunteers,8.4E−02 rem/mCi
same,"absorbed dose estimate, Mean, Uterus",12 healthy volunteers,4.6E−02 rem/mCi
same,"ED (effective dose), Mean",[1],0.071 rem/mCi and 7.1E−02 rem/mCi
same,"absorbed dose estimate, Mean, Heart Wall",[1],0.18 rem/mCi and 1.8E−01 rem/mCi
same,"absorbed dose estimate, Mean, Kidneys",[1],0.24 rem/mCi and 2.4E−01 rem/mCi
same,"peak uptake, kidneys","average, 12 healthy volunteers",approximately 9.4 % of the injected activity
same,"peak uptake, liver","average, 12 healthy volunteers",approximately 19.1 % of the injected activity
same,"absorbed dose, heart wall",[2],0.048 mSv/MBq
same,"absorbed dose, kidneys",[2],0.066 mSv/MBq
same,mean ED (effective dose),voiding interval 3.5 hours,0.019 mSv/MBq
